Source: patent US12617794B2, “GABAA positive allosteric modulator compounds, methods of making, and uses thereof” (NEUROCYCLE THERAPEUTICS, INC., priority 2019, dated 2026)
Like-named read-outs stand apart in the source and are kept apart here.

Assays:
Assay type in all cases: physicochemical
[1] = Intrinsic dissolution rate in SGF (Example 16); settings: 37° C., 100 rpm, linear scope within 2 to 120 min
Description: About 100 mg of Free Base Polymorphic Form A or Phosphate Polymorphic Form A was weighed into the intrinsic dissolution apparatus and the sample compressed for 1 minute with a compression force of ˜4 MPa to form a compacted pellet within the stainless-steel die. All loose powder was removed from the surface of the die. The intrinsic dissolution shaft was connected with the stainless-steel die and tightened so only one surface of the pellet was exposed (surface area=0.496 cm^2). The shaft in the spindle was adjusted to ensure the exposed surface of the compacted tablet was ˜3.8 cm from the bottom of the vessel when lowered. The temperature of chamber water was set at 37° C.±0.5° C., the shaft rotation at 100 rpm and the sampling time points at 2, 5, 10, 15, 30, 45, 60, 120 min. SGF was used as dissolution medium (900 mL). At each time point, solution samples were filtered, and the supernatant was analyzed by HPLC-UV.

[2] = Fast cooling crystallization (Example 63); settings: fast cooling to 4° C. or −20° C.
Description: The suspensions were filtered to obtain saturated solution which was cooled to final temperature (4° C. or −20° C.) immediately and characterized.
The suspensions were filtered to obtain saturated solutions which were immediately cooled to final temperature (4° C. or −20° C.). Any solids obtained were characterized.

[3] = Liquid vapor diffusion (Example 61); settings: RT, 6 days
Excerpt: After filtration, the filtrate in a small vial was put into a bigger vial containing anti-solvent. The bigger vial was left at RT for days. If precipitation occurred, solid was collected and characterized.
After filtration, the filtrate was transferred into a small vial, which was then placed inside a bigger vial which contained anti-solvent. The bigger vial was left at RT for 6 days. If precipitation occurred, solid was collected and characterized. No new phosphate form was obtained.

[4] = Solubility in aqueous buffers, SGF, FaSSIF and FeSSIF (Example 15); settings: for solubility thermodynamic: 20 °C, thermodynamic from solid, read-out: Measured Conc.; for solubility thermodynamic / Measured Conc. (μg/mL): ~20-25° C., ~24 hours
Description: About 2 mg of test article was added to a 1.5 mL vials which contained ˜1.0 mL of one medium listed in Table 7 and Table 8, which was then sealed. The mixtures were stirred at ˜20-25° C. for ˜24 hours. After that, the mixture was filtered by 0.45 μm filter membrane and then the supernatant was analyzed by HPLC.

[5] = Hygroscopicity by dynamic vapor sorption (DVS), Example 4
Description: The hygroscopicity of Phosphate Polymorph Form A was measured by Dynamic vapor sorption (DVS). […] After DVS, XRPD confirmed that the crystalline form was retained (FIG. 19).

[6] = Approximate solubility study of TPA023B phosphate (Example 25); settings: RT, listed as TPA023B phosphate
Description: The total amount of solvent was recorded to calculate the approximate solubility in these solvents.

[7] = Polymer induced crystallization (Example 67); settings: evaporative crystallization at RT, ~10% polymer
Description: Then ˜10% of polymer was added into clear solution. The mixture was evaporated to dryness at RT. The solid was isolated and characterized.
No new phosphate form was obtained.

[8] = Competitive slurry study
Excerpt: Determining which polymorphic form is more thermodynamically stable may be experimentally determined by conventional methods known in the art. For example, a competitive slurry experiment in which a 1:1 mixture of polymorphic forms is stirred for a period of time in a solvent in which both polymorphic forms are partly soluble may be conducted. It is accepted by those skilled in the art that if the 1:1 mixture converts entirely to one polymorphic form, that form that results is more thermodynamically stable of the two, while the other form is metastable.
TPA023B Phosphate of mixed forms was added into specific solvents and stirred at RT or 50° C. for 1 day. The suspensions were filtered and characterized by XRPD.

[9] = Slurry of Phosphate Form A in acetone with different water content (Example 68); settings: for Result (solid form after slurry): slurry in acetone at RT
Excerpt: The suspension was stirred at RT for hours. The solid was isolated and analyzed. […] Phosphate dissociated when water content is >, 4% wt. in acetone at RT.

[10] = DVS of TPA023B Phosphate Form A (Example 33); settings: for hygroscopicity: DVS; for crystal form after DVS test: XRPD

## CC(C)(O)c1cnn2c(-c3ccc(F)c(-c4c(F)cccc4C#N)c3)cnc2n1 [Phosphate Polymorphic Form A, 2′,6-difluoro-5′-[3-(1-hydroxy-1-methylethyl)-imidazo[1,2-b][1,2,4]triazin-7-yl]biphenyl-2-carbonitrile]
[1]
  intrinsic dissolution rate: 0.184 mg·cm^−2min^−1
[2]; solvent 1,4-dioxane
  Result (solid form obtained): No solid
[2]; solvent 1-methyl-2-pyrrolidone
  Result (solid form obtained): No solid
[2]; solvent 2-butanone
  Result (solid form obtained): Phosphate Form A
[2]; solvent 2-methyl tetrahydrofuran
  Result (solid form obtained): No solid
[2]; solvent 4-methyl-2-pentanone
  Result (solid form obtained): Phosphate Form A
[2]; solvent ACN
  Result (solid form obtained): Phosphate Form A
[2]; solvent Acetone
  Result (solid form obtained): Phosphate Form A
[2]; solvent Anisole
  Result (solid form obtained): No solid
[2]; solvent BAC
  Result (solid form obtained): Phosphate Form A
[2]; solvent Butanol
  Result (solid form obtained): Freebase form A
[2]; solvent DMF
  Result (solid form obtained): No solid
[2]; solvent DMSO
  Result (solid form obtained): No solid
[2]; solvent EA
  Result (solid form obtained): Phosphate Form A
[2]; solvent Ethyl formate
  Result (solid form obtained): Phosphate Form A
[2]; solvent Isoamyl alcohol
  Result (solid form obtained): New Free Base pattern K
[2]; solvent MAC
  Result (solid form obtained): Phosphate Form A
[2]; solvent MEK
  Result (solid form obtained): Phosphate Form A
[2]; solvent Propyl acetate
  Result (solid form obtained): Phosphate Form A
[2]; solvent THF
  Result (solid form obtained): No solid
[3]; solvent 2-methyl tetrahydrofuran, anti-solvent Chloroform
  Result (solid form obtained): Phosphate Form A
[3]; solvent 2-methyl tetrahydrofuran, anti-solvent Methyl cyclohexane
  Result (solid form obtained): Phosphate Form A
[3]; solvent 2-methyl tetrahydrofuran, anti-solvent xylene
  Result (solid form obtained): Phosphate Form A
[3]; solvent DMAC, anti-solvent DCM
  Result (solid form obtained): No solid
[3]; solvent DMAC, anti-solvent EA
  Result (solid form obtained): No solid
[3]; solvent DMAC, anti-solvent Isopropyl ether
  Result (solid form obtained): No solid
[3]; solvent Diox, anti-solvent ACN
  Result (solid form obtained): No solid
[3]; solvent Diox, anti-solvent BAC
  Result (solid form obtained): Phosphate Form A
[3]; solvent Diox, anti-solvent DCM
  Result (solid form obtained): Phosphate Form A
[3]; solvent Diox, anti-solvent Heptane
  Result (solid form obtained): Phosphate Form A
[3]; solvent Diox, anti-solvent Isopropyl ether
  Result (solid form obtained): Phosphate Form A
[3]; solvent MEK, anti-solvent Cyclohexanone
  Result (solid form obtained): Phosphate Form A
[3]; solvent MEK, anti-solvent DCM
  Result (solid form obtained): Phosphate Form A
[3]; solvent MEK, anti-solvent MAC
  Result (solid form obtained): No solid
[3]; solvent MEK, anti-solvent MTBE
  Result (solid form obtained): No solid
[3]; solvent MEK, anti-solvent Trichloromethane
  Result (solid form obtained): Phosphate Form A
[3]; solvent NMP, anti-solvent Chloroform
  Result (solid form obtained): No solid
[3]; solvent NMP, anti-solvent Isopropyl ether
  Result (solid form obtained): No solid
[3]; solvent NMP, anti-solvent MEK
  Result (solid form obtained): No solid
[3]; solvent THF, anti-solvent ACN
  Result (solid form obtained): No solid
[3]; solvent THF, anti-solvent EA
  Result (solid form obtained): Phosphate Form A
[3]; solvent THF, anti-solvent N-pentane
  Result (solid form obtained): Phosphate Form A
[3]; solvent THF, anti-solvent Toluene
  Result (solid form obtained): Phosphate Form A
[3]; solvent THF, anti-solvent Trichloromethane
  Result (solid form obtained): No solid
[4]; FaSSIF, fassif, FaSSIF
  solubility thermodynamic: 7.14 µg/mL
[4]; FeSSIF, fessif, FeSSIF
  solubility thermodynamic: 50.7 µg/mL
[4]; SGF, simulated gastric fluid, SGF
  solubility thermodynamic: 3.85 µg/mL
[4]; citrate buffer, pH 3, aqueous buffer, pH 3.0 citrate buffer (100 mM), LOQ: 0.1 μg/mL
  solubility thermodynamic: 0.16 µg/mL
[4]; in SGF, FaSSIF and FeSSIF
  solubility compared with Free Base Polymorphic Form A: higher solubility
[4]; pH 4.5 citrate buffer (100 mM), LOQ: 0.1 μg/mL
  Measured Conc. (μg/mL): <LOQ
[4]; pH 7.4 PBS (50 mM), LOQ: 0.1 μg/mL
  Measured Conc. (μg/mL): <LOQ
[4]; pH 9.0 USP Buffer (50 mM), LOQ: 0.1 μg/mL
  Measured Conc. (μg/mL): <LOQ
[5]
  crystalline form after DVS (XRPD): retained
  reversible mass increase (DVS): about 1.08%
[6]; DMF
  Solubility (mg/mL): relatively high solubility
[6]; DMSO
  Solubility (mg/mL): relatively high solubility
[7]; solvent MEK, polymer EC (Ethyl cellulose)
  Result (solid form obtained): Phosphate Form A
[7]; solvent MEK, polymer PAA Poly(acrylic acid)
  Result (solid form obtained): Phosphate Form A
[7]; solvent MEK, polymer PEG4000, listed as Phosphate Form A
  Result (solid form obtained): Free Base Form F
[7]; solvent MEK, polymer PVP-K30 (Polyvinyl pyrrolidone), listed as Phosphate Form A
  Result (solid form obtained): Free Base Form F
[7]; solvent THF, polymer EC
  Result (solid form obtained): Phosphate Form A
[7]; solvent THF, polymer PAA Poly
  Result (solid form obtained): Phosphate Form A
[7]; solvent THF, polymer PEG4000
  Result (solid form obtained): Phosphate Form A
[7]; solvent THF, polymer PVP-K30
  Result (solid form obtained): Phosphate Form 1A
[8]
  thermodynamic stability among phosphate forms: most thermodynamically stable form
[9]; water content 3 wt. %
  Result (solid form after slurry): Phosphate Form A
[9]; water content 3.5 wt. %
  Result (solid form after slurry): Phosphate Form A
[9]; water content 4 wt. %
  Result (solid form after slurry): Phosphate Form A + Free Base Form E
[9]; water content 4.5 wt. %
  Result (solid form after slurry): Phosphate Form A + Free Base Form E
[9]; water content 5 wt. %
  Result (solid form after slurry): Phosphate Form A + Free Base Form E
[9]; water content 5.5 wt. %
  Result (solid form after slurry): Phosphate Form A + Free Base Form E
[9]; water content 6 wt. %
  Result (solid form after slurry): Phosphate Form A + Free Base Form E
[9]; water content <3.5% wt., RT
  solid form after slurry in acetone: remained unchanged
[9]; water content >, 4% wt. in acetone at RT
  solid form after slurry in acetone: dissociated
[10]; listed as Phosphate Form A
  hygroscopicity: slightly hygroscopic
  crystal form after DVS test: remained unchanged
[10]; listed as phosphate Form A
  hygroscopicity: slight hygroscopicity
  crystal form after DVS test: no change
[10]; from 0 to 80% RH
  water absorbed (DVS): 0.68%
